pEC50: −log10 of the molar value.
Tests used:
Type in all cases: binding
TEAD1 YAP50-100 = TEAD1 YAP50-100 (Homo sapiens, UniProt P28347); assay: TEAD1-YAP HTRF (TR-FRET) protein-protein interaction assay; details: TEAD1, YAP peptide 50-100, HTRF; for pEC50: read-out: TEAD1 YAP50-100 HTRF combined: EC50
Summary of the method: (§1)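 His-tagged TEAD YAP-binding domain (aa 217-447) pre-bound to Eu anti-His antibody, then incubated 30 min with compound before adding biotinylated YAP (aa 50-100) or TAZ (aa 13-57) peptide with streptavidin-XL665. After 60 min at room temperature, TR-FRET 665/615 nm ratio read; IC50/EC50 from four-parameter fit.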

[1] = target: TEAD4 TAZ (amino acids 13-57) (Homo sapiens, UniProt Q15561); assay: TEAD4-TAZ HTRF (TR-FRET) protein-protein interaction assay; details: for TEAD4 TAZ HTRF combined: Max % Inhibition: TEAD4, TAZ peptide; for pEC50: TEAD4-TAZ HTRF, TR-FRET 665 nm/615 nm, read-out: TEAD4 TAZ HTRF combined: EC50
Chain of TEAD4 TAZ (amino acids 13-57) (Q15561 217-434 limits assumed): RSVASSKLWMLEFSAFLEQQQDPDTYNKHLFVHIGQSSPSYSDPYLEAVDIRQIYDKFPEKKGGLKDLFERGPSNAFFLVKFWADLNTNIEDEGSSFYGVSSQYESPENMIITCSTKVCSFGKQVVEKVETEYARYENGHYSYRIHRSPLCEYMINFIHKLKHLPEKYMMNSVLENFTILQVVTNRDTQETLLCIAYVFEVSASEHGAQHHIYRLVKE
Summary of the method: as §1

[2] = target: TEAD1 TAZ (amino acids 13-57) (Homo sapiens, UniProt P28347); assay: TEAD1-TAZ HTRF (TR-FRET) protein-protein interaction assay; details: for TEAD1 TAZ HTRF combined: Max % Inhibition: TEAD1, TAZ peptide; for pEC50: TEAD1-TAZ HTRF, TR-FRET 665 nm/615 nm, read-out: TEAD1 TAZ HTRF combined: EC50
Chain of TEAD1 TAZ (amino acids 13-57) (P28347 167-426 limits assumed): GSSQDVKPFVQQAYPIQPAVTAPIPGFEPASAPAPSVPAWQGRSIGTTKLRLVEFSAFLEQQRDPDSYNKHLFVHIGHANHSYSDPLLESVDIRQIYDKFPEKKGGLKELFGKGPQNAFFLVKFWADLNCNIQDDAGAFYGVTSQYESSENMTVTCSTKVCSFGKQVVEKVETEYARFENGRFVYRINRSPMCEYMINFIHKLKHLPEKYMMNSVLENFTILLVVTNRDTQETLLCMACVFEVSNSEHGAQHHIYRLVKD
Summary of the method: as §1

TEAD3 YAP50-100 = TEAD3 YAP50-100 (Homo sapiens, UniProt Q99594); assay: TEAD3-YAP HTRF (TR-FRET) protein-protein interaction assay; details: TEAD3, YAP peptide 50-100, HTRF; for pEC50: read-out: TEAD3 YAP50-100 HTRF combined: EC50
Chain of TEAD3 YAP50-100 (Q99594 173-435 limits assumed): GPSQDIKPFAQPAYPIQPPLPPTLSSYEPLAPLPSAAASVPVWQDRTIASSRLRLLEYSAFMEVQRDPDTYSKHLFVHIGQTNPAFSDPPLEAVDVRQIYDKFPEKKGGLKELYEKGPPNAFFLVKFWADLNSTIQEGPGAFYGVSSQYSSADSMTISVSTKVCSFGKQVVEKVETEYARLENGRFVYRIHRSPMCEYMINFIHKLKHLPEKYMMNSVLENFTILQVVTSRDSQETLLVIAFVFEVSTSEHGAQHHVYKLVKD
Summary of the method: as §1

[3] = target: TEAD2 TAZ (amino acids 13-57) (Homo sapiens, UniProt Q15562); assay: TEAD2-TAZ HTRF (TR-FRET) protein-protein interaction assay; details: for TEAD2 TAZ HTRF combined: Max % Inhibition: TEAD2, TAZ peptide; for pEC50: TEAD2-TAZ HTRF, TR-FRET 665 nm/615 nm, read-out: TEAD2 TAZ HTRF combined: EC50
Chain of TEAD2 TAZ (amino acids 13-57) (Q15562 217-447): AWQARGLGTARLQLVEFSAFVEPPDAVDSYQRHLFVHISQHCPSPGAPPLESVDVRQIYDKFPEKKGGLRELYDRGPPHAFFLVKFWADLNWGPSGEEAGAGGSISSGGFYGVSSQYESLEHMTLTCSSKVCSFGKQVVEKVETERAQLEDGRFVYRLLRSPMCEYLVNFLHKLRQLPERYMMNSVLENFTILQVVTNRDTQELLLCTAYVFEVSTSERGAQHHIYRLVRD
Summary of the method: as §1

TEAD4 YAP50-100 = TEAD4 YAP50-100 (Homo sapiens, UniProt Q15561); assay: TEAD4-YAP HTRF (TR-FRET) protein-protein interaction assay; details: TEAD4, YAP peptide 50-100, HTRF; for pEC50: read-out: TEAD4 YAP50-100 HTRF combined: EC50
Chain of TEAD4 YAP50-100 (Q15561 217-434 limits assumed): as the sequence (Q15561 217-434 limits assumed) above
Summary of the method: as §1

[4] = target: TEAD3 TAZ (amino acids 13-57) (Homo sapiens, UniProt Q99594); assay: TEAD3-TAZ HTRF (TR-FRET) protein-protein interaction assay; details: for TEAD3 TAZ HTRF combined: Max % Inhibition: TEAD3, TAZ peptide; for pEC50: TEAD3-TAZ HTRF, TR-FRET 665 nm/615 nm, read-out: TEAD3 TAZ HTRF combined: EC50
Chain of TEAD3 TAZ (amino acids 13-57) (Q99594 173-435 limits assumed): as the sequence (Q99594 173-435 limits assumed) above
Summary of the method: as §1

TEAD2 YAP50-100 = TEAD2 YAP50-100 (Homo sapiens, UniProt Q15562); assay: TEAD2-YAP HTRF (TR-FRET) protein-protein interaction assay; details: TEAD2, YAP peptide 50-100, HTRF; for pEC50: read-out: TEAD2 YAP50-100 HTRF combined: EC50
Chain of TEAD2 YAP50-100 (Q15562 217-447): as the sequence (Q15562 217-447) above
Summary of the method: as §1

Chain of TEAD1 YAP50-100 (P28347 167-426 limits assumed): as the sequence (P28347 167-426 limits assumed) above

SMILES	TEAD1 YAP50-100 HTRF combined: Max % Inhibition (TEAD1 YAP50-100) [%]	pEC50 (TEAD1 YAP50-100)	TEAD4 TAZ HTRF combined: Max % Inhibition [1] [%]	pEC50 [1]	TEAD1 TAZ HTRF combined: Max % Inhibition [2] [%]	pEC50 [2]	TEAD3 YAP50-100 HTRF combined: Max % Inhibition (TEAD3 YAP50-100) [%]	pEC50 (TEAD3 YAP50-100)	TEAD2 TAZ HTRF combined: Max % Inhibition [3] [%]	pEC50 [3]	TEAD4 YAP50-100 HTRF combined: Max % Inhibition (TEAD4 YAP50-100) [%]	pEC50 (TEAD4 YAP50-100)	TEAD3 TAZ HTRF combined: Max % Inhibition [4] [%]	pEC50 [4]	TEAD2 YAP50-100 HTRF combined: Max % Inhibition (TEAD2 YAP50-100) [%]	pEC50 (TEAD2 YAP50-100)
CN(C)C(=O)c1nn2c(=O)cc(-c3cc(F)c(C4CCCCC4)c(F)c3)[nH]c2c1C(=O)N1CC(CF)C1 [Compound 3, 5-(4-Cyclohexyl-3,5-difluorophenyl)-3-(3-(fluoromethyl)azetidine-1-carbonyl)-N,N-dimethyl-7-oxo-4,7-dihydropyrazolo[1,5-a]pyrimidine-2-carboxamide]	55.0	7.22	29.0	6.77	44.0	7.05	66.5	6.64	55.0	8.00	39.5	6.68	44.0	6.72	56.5	8.00
CCn1cnc(-c2nn3c(=O)cc(-c4ccc(C5CCCCC5)cc4)[nH]c3c2C(=O)N2CC(CF)C2)c1 [Compound 31, 5-(4-Cyclohexylphenyl)-2-(1-ethyl-1H-imidazol-4-yl)-3-(3-(fluoromethyl)azetidine-1-carbonyl)pyrazolo[1,5-a]pyrimidin-7(4H)-one]	65.0	7.10	32.0	6.21	60.5	6.92	59.0	6.77	60.5	7.70	36.0	6.11	49.5	6.68	62.0	7.70
Cc1nccnc1-c1nn2c(=O)cc(-c3ccc(C4CCCCC4)cc3)[nH]c2c1C(=O)N1CC(CF)C1 [Compound 27, 5-(4-Cyclohexylphenyl)-3-(3-(fluoromethyl)azetidine-1-carbonyl)-2-(3-methylpyrazin-2-yl)pyrazolo[1,5-a]pyrimidin-7(4H)-one]	75.0	7.52	53.1	7.52	74.5	7.30	74.6	7.00	67.9	8.00	54.1	7.52	64.9	7.00	68.6	8.00
C[C@H]1[C@@H](CF)CN1C(=O)c1c(-c2ncccn2)nn2c(=O)cc(-c3ccc(CC4CCCC4)cc3)[nH]c12 (single isomer, unassigned) [Isomer A, Example 43]	64.0	7.52	52.0	8.00	54.5	7.52	58.5	7.22	63.0	8.00	52.0	8.00	52.0	7.22	71.0	8.00

Further compounds by rising pEC50 (TEAD1 YAP50-100), results first:

TEAD1 YAP50-100 HTRF combined: Max % Inhibition (TEAD1 YAP50-100) [%]	pEC50 (TEAD1 YAP50-100)	TEAD4 TAZ HTRF combined: Max % Inhibition [1] [%]	pEC50 [1]	TEAD1 TAZ HTRF combined: Max % Inhibition [2] [%]	pEC50 [2]	TEAD3 YAP50-100 HTRF combined: Max % Inhibition (TEAD3 YAP50-100) [%]	pEC50 (TEAD3 YAP50-100)	TEAD2 TAZ HTRF combined: Max % Inhibition [3] [%]	pEC50 [3]	TEAD4 YAP50-100 HTRF combined: Max % Inhibition (TEAD4 YAP50-100) [%]	pEC50 (TEAD4 YAP50-100)	TEAD3 TAZ HTRF combined: Max % Inhibition [4] [%]	pEC50 [4]	TEAD2 YAP50-100 HTRF combined: Max % Inhibition (TEAD2 YAP50-100) [%]	pEC50 (TEAD2 YAP50-100)	SMILES
66.0	7.00	16.5	6.80	50.0	6.92	64.0	6.82	50.0	7.70	27.5	6.66	55.0	6.82	54.5	7.70	O=C(c1c(-c2cccnc2)nn2c(=O)cc(-c3ccc(C4CCCCC4)cc3)[nH]c12)N1CC(CF)C1 [Compound 37, 5-(4-Cyclohexylphenyl)-3-(3-(fluoromethyl)azetidine-1-carbonyl)-2-(pyridin-3-yl)pyrazolo[1,5-a]pyrimidin-7(4H)-one]
64.0	7.10	20.0	5.96	49.0	7.10	69.5	6.49	57.0	7.70	48.5	5.31	66.0	6.47	45.0	7.70	Cc1nccnc1-c1nn2c(=O)cc(-c3ccc(CC4CCCC4)cc3)[nH]c2c1C(=O)N1C[C@@H](CF)[C@H]1C (single isomer, unassigned) [Isomer A, Example 42]
70.0	7.15	38.0	6.07	60.5	7.10	71.0	6.74	73.5	7.70	48.0	5.99	60.0	6.70	73.5	7.70	O=C(c1nn2c(=O)cc(-c3ccc(C4CCCCC4)cc3)[nH]c2c1C(=O)N1CC(CF)C1)N1CCCC1 [Compound 36, 5-(4-Cyclohexylphenyl)-3-(3-(fluoromethyl)azetidine-1-carbonyl)-2-(pyrrolidine-1-carbonyl)pyrazolo[1,5-a]pyrimidin-7(4H)-one]
62.0	7.22	42.0	6.48	47.0	7.15	60.5	6.92	66.5	8.00	51.5	6.33	44.0	6.92	68.0	8.00	CN(C)C(=O)c1nn2c(=O)cc(-c3ccc(CC4CCCC4)cc3)[nH]c2c1C(=O)N1CC(CF)C1 [Compound 2, 5-(4-(Cyclopentylmethyl)phenyl)-3-(3-(fluoromethyl)azetidine-1-carbonyl)-N,N-dimethyl-7-oxo-4,7-dihydropyrazolo[1,5-a]pyrimidine-2-carboxamide]
74.0	7.40	51.0	7.52	71.5	7.40	69.5	7.10	61.5	8.00	49.5	7.52	69.5	7.05	62.5	8.00	Cc1nccnc1-c1nn2c(=O)cc(-c3ccc(C4CCCCC4)c(F)c3)[nH]c2c1C(=O)N1CC(CF)C1 [Compound 21, 5-(4-cyclohexyl-3-fluorophenyl)-3-(3-(fluoromethyl)azetidine-1-carbonyl)-2-(3-methylpyrazin-2-yl)pyrazolo[1,5-a]pyrimidin-7(4H)-one]
